Experimental data as given in PMC12566046, “Arylpiperazinyl-Benzocycloheptapyrrole-Carboxamides Endowed with Dual Anticancer and Antiviral Activities” (Molecules, 2025).

Key:
[1] = system: K-562 (leukemia cell line); test: NCI-60 single-dose assay; type: cell-based; conditions: Homo sapiens, K562, read-out: growth inhibition (GI%) and cytotoxicity (negative values)
Procedure, shortened: (§1)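 NCI-60 one-dose format: each compound is tested at a single dose against human tumour lines for cytotoxic effect.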

[2] = system: 786-0 (renal cancer cell line); test: NCI-60 single-dose assay; type: cell-based, human; conditions: Homo sapiens, 786-0, read-out: growth inhibition (GI%) and cytotoxicity (negative values)
Procedure, shortened: as §1

[3] = system: BT-549 (breast cancer cell line); test: NCI-60 single-dose assay; type: cell-based, human; conditions: Homo sapiens, BT-549, read-out: growth inhibition (GI%) and cytotoxicity (negative values)
Procedure, shortened: as §1

[4] = system: CCRF-CEM (leukemia cell line); test: NCI-60 single-dose assay; type: cell-based, human; conditions: Homo sapiens, read-out: growth inhibition (GI%) and cytotoxicity (negative values)
Procedure, shortened: as §1

[5] = system: COLO 205 (colon cancer cell line); test: NCI-60 single-dose assay; type: cell-based, human; conditions: human
Procedure, shortened: as §1

[6] = system: HCT-116 (colon cancer cell line); test: NCI-60 single-dose assay; type: cell-based, human; conditions: Homo sapiens, HCT-116, read-out: growth inhibition (GI%) and cytotoxicity (negative values)
Procedure, shortened: as §1

[7] = system: HCT-15 (colon cancer cell line); test: NCI-60 single-dose assay; type: cell-based, human; conditions: Homo sapiens, HCT-15, read-out: growth inhibition (GI%) and cytotoxicity (negative values)
Procedure, shortened: as §1

[8] = system: LOX IMVI (melanoma cell line); test: NCI-60 single-dose assay; type: cell-based, human
Procedure, shortened: as §1

[9] = system: MDA-MB-231/ATCC (breast cancer cell line); test: NCI-60 single-dose assay; type: cell-based, human; conditions: Homo sapiens, MDA-MB-231, read-out: growth inhibition (GI%) and cytotoxicity (negative values)
Procedure, shortened: as §1

[10] = system: MDA-MB-435 (melanoma cell line); test: NCI-60 single-dose assay; type: cell-based, human
Procedure, shortened: as §1

[11] = system: MDA-MB-468 (breast cancer cell line); test: NCI-60 single-dose assay; type: cell-based, human; conditions: human
Procedure, shortened: as §1

[12] = system: MOLT-4 (leukemia cell line); test: NCI-60 single-dose assay; type: cell-based, human; conditions: Homo sapiens, MOLT-4, read-out: growth inhibition (GI%) and cytotoxicity (negative values)
Procedure, shortened: as §1

[13] = system: NCI-H226 (non-small cell lung cancer cell line); test: NCI-60 single-dose assay; type: cell-based, human; conditions: Homo sapiens, NCI-H226, read-out: growth inhibition (GI%) and cytotoxicity (negative values)
Procedure, shortened: as §1

[14] = system: NCI-H460 (non-small cell lung cancer cell line); test: NCI-60 single-dose assay; type: cell-based, human; conditions: Homo sapiens, NCI-H460, read-out: growth inhibition (GI%) and cytotoxicity (negative values)
Procedure, shortened: as §1

[15] = system: NCI-H522 (non-small cell lung cancer cell line); test: NCI-60 single-dose assay; type: cell-based, human; conditions: Homo sapiens, NCI-H522, read-out: growth inhibition (GI%) and cytotoxicity (negative values)
Procedure, shortened: as §1

SR (leukemia cell line) = test: NCI-60 single-dose assay; type: cell-based, human
Procedure, shortened: as §1

[16] = system: T-47D (breast cancer cell line); test: NCI-60 single-dose assay; type: cell-based, human; conditions: Homo sapiens, T47D, read-out: growth inhibition (GI%) and cytotoxicity (negative values)
Procedure, shortened: as §1

[17] = system: UACC-257 (melanoma cell line); test: NCI-60 single-dose assay; type: cell-based, human
Procedure, shortened: as §1

[18] = system: UACC-62 (melanoma cell line); test: NCI-60 single-dose assay; type: cell-based, human
Procedure, shortened: as §1

[19] = system: UO-31 (renal cancer cell line); test: NCI-60 single-dose assay; type: cell-based, human; conditions: Homo sapiens, UO-31, read-out: growth inhibition (GI%) and cytotoxicity (negative values)
Procedure, shortened: as §1

NCI-60 cell line panel = test: NCI-60 single-dose assay, whole panel; type: cell-based, human; conditions: summary over the panel
Procedure, shortened: as §1

[20] = system: ZIKV, strain Brazil/2016/INMI1; test: ZIKV viral yield reduction assay on Huh-7 cells; type: cell-based, Zika virus; conditions: Zika virus; preliminary screening (50, 5, 0.5 μM), Huh-7; read-out: ZIKV/Huh‐7 EC50
Procedure, shortened: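 Huh-7 cells infected with ZIKV at MOI 1 for 2 h at 37 °C, compounds added right after infection in duplicate at 50, 5 and 0.5 μM. Supernatants taken at 48 h and titrated by plaque assay on VERO E6 under carboxymethyl cellulose with crystal violet staining. % inhibition from PFU/mL versus DMSO-treated control; SI = CC50/EC50.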

in vitro = conditions: African green monkey
[21] = system: IAV strain A/PR/8/34 (H1N1); test: microbe, parasite or virus in culture; conditions: Influenza A virus, MDCK, read-out: IAV/MDCK EC50

Compound | inhibition at 10 µM [1] | inhibition at 10 µM [2] | inhibition at 10 µM [3] | inhibition at 10 µM [4] | growth inhibition (GI%) and cytotoxicity (negative values) [5] | inhibition at 10 µM [6] | inhibition at 10 µM [7] | inhibition at 10 µM [9] | growth inhibition (GI%) and cytotoxicity (negative values) [11] | inhibition at 10 µM [12] | inhibition at 10 µM [13] | inhibition at 10 µM [14] | inhibition at 10 µM [15] | inhibition at 10 µM [16] | inhibition at 10 µM [19] | growth inhibition (GI%) reached against cancer cell lines of the NCI-60 panel (NCI-60 cell line panel) | EC50 [20] | CC50 at 24 h (in vitro) | EC50 [21] | further results
O=C(NCCCN1CCN(Cc2ccccc2)CC1)c1c(Cl)[nH]c2c1CCCc1ccccc1-2 [Compound 20, N-(3-(4-Benzylpiperazin-1-yl)propyl)-2-chloro-1,4,5,6-tetrahydrobenzo[6,7]cyclohepta[1,2-b]pyrrole-3-carboxamide] | < 60% | 87% | 68.4% | < 60% | −59.92% | 95.5% | 99% | 62.6% | −29.55% | < 60% | < 60% | 83.1% | 92.2% | 78.5% | 65.9% | > 90% | 4.74 µM | 15.4 µM | 17.7 µM | growth inhibition (GI%) and cytotoxicity (negative values) ([8]; human): −69.19%; growth inhibition (GI%) and cytotoxicity (negative values) ([10]; human): −21.33%; inhibition at 10 µM (SR (leukemia cell line); Homo sapiens, read-out: growth inhibition (GI%) and cytotoxicity (negative values)): 99.4%; growth inhibition (GI%) and cytotoxicity (negative values) ([17]; human): −58.02%; growth inhibition (GI%) and cytotoxicity (negative values) ([18]; human): −59.22%
CCOc1ccccc1N1CCN(CCNC(=O)c2c(Cl)[nH]c3c2CCCc2ccccc2-3)CC1 [Compound 17] | 100% | < 60% | 80.7% | 61.6% | −47.24% | 88.9% | 81% | < 60% | −3.78% | 95.5% | 60.4% | 70% | 65.7% | 77.6% | 69.3% | > 90% | 4.46 µM | 37.2 µM | 34.9 µM | inhibition at 10 µM ([8]; Homo sapiens, LOX IMVI, read-out: growth inhibition (GI%) and cytotoxicity (negative values)): 74.3%; inhibition at 10 µM ([10]; Homo sapiens, MDA-MB-435, read-out: growth inhibition (GI%) and cytotoxicity (negative values)): 69.3%; growth inhibition (GI%) and cytotoxicity (negative values) (SR (leukemia cell line); human): −5.19%; inhibition at 10 µM ([17]; Homo sapiens, UACC-257, read-out: growth inhibition (GI%) and cytotoxicity (negative values)): 72%; inhibition at 10 µM ([18]; Homo sapiens, UACC-62, read-out: growth inhibition (GI%) and cytotoxicity (negative values)): < 60%
